From PubChem BioAssay AID1912 (The Scripps Research Institute Molecular Screening Center, 2009)
Activity calls are given as the source filed them. The rule behind the calls is not given here.

Each compound was assayed against Luciferin 4-monooxygenase (Photinus pyralis) (UniProt P08659) (assay: native FLuc inhibition dose response – biochemical, luminescence, artefact control for HSP90 inhibitor project (AID 1912)). Details: purified firefly luciferase.
Chain of Luciferin 4-monooxygenase (Photinus pyralis) (P08659 whole entry, looked up): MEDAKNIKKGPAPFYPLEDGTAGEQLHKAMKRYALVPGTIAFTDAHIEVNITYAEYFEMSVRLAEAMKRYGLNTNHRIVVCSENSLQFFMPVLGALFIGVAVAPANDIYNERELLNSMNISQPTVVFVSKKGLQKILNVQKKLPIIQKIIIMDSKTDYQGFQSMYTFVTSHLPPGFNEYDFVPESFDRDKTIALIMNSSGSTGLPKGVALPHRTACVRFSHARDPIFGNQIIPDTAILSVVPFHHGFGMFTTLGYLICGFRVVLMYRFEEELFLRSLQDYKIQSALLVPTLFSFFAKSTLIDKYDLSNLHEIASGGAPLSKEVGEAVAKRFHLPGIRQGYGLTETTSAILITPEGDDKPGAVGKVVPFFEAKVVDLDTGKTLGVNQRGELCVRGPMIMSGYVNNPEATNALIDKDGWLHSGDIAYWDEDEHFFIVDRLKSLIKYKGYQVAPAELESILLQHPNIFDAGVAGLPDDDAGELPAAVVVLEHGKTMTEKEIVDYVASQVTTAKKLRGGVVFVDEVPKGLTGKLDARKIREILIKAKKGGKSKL

IC50, inactive:
COc1cc(/C=N/Nc2ccc(Cl)c(C(=O)O)c2)ccc1OC(=O)c1ccccc1F > 60 µM
O=C(O)CSCC(=O)Nc1ccc(C2CCCCC2)cc1 > 60 µM
CCCc1ccc(OCc2ccc(C(=O)N3CCSCC3)o2)cc1
CC1=NN(c2ccccc2)C(=O)/C1=C\N(O)c1ccccc1 > 60 µM
Cc1cccc(N(O)C(=O)Nc2cccc(Cl)c2)c1 > 60 µM
COc1ccccc1NC(=O)c1coc(=O)c(Br)c1 > 60 µM
Cc1ccc(/C=C2/C(=O)c3ccc(C(=O)O)cc3C2=O)o1 > 60 µM
Cc1cc(C)c(S(=O)(=O)/N=C2\C=C(Nc3ccc(C(=O)O)cc3)C(=O)c3ccccc32)c(C)c1 > 60 µM
CCOC(=O)c1csc(COc2ccc(OC)cc2)n1 > 60 µM
O=[N+]([O-])/C=C/c1ccc2c(ccn2Cc2ccccc2)c1 > 60 µM
CC(=O)CSc1ccc(-c2nc3ccccc3[nH]2)cn1 > 60 µM
O=C(CN1C(=O)c2ccccc2S1(=O)=O)c1ccc2c(c1)OCCO2 > 60 µM
Cc1ccc2nc(NC(=O)CSCC(=O)OCC(=O)c3ccccc3)sc2c1 > 60 µM
Cc1ccc(C(=O)CSc2ccccc2C(=O)O)cc1
Cc1ccc(S(=O)(=O)/N=C2\C=C(Nc3cccc(C(=O)O)c3)C(=O)c3ccccc32)cc1 > 60 µM
COC(=O)c1ccccc1NC1=C/C(=N\S(=O)(=O)c2ccc(C(=O)O)cc2)c2ccccc2C1=O > 60 µM
O=C1C(Nc2ccccc2)=C/C(=N/S(=O)(=O)c2cccs2)c2ccccc21
Nc1cc(-c2ccccc2)ccc1O > 60 µM
COC(=O)c1ccccc1OCCCOc1ccc(C)cc1OC > 60 µM
O=[N+]([O-])c1ccc(S(=O)(=O)N2CCN=C2SCc2ccc(F)cc2)cc1 > 60 µM
COC(=O)c1ccc2nc(NC(=O)C3CC3)sc2c1 > 60 µM
CN1C(=O)S/C(=C/c2ccc(OCc3cccc(C(=O)O)c3)cc2)C1=O > 20 µM
COc1cc(/C=N/Nc2ccc(Cl)c(C(=O)O)c2)ccc1OC(=O)c1ccc(F)cc1 > 60 µM
Cc1cc2ccccc2n1CCNC(=O)c1cccs1 > 60 µM
O=[N+]([O-])c1ccc(N=Nc2ncc[nH]2)cc1 > 60 µM
Cc1cc(NO)nc(-c2ccc(Br)cc2)n1 > 60 µM
COc1cc(/C=C/[N+](=O)[O-])ccc1OCc1cccc(C(=O)O)c1
Cc1nc(NC(=O)/C=C/c2ccccc2)sc1C(=O)Nc1ccccc1Cl > 60 µM
